Experimental data published in ChEMBL document CHEMBL1201862, “PubChem BioAssay data set” (2004).
The source made the active and inactive calls.

Columns and labels:
[1] = molecular target: T1, Beta-2 adrenergic receptor (Homo sapiens, UniProt P07550); test: Dose response for HTS for Beta-2AR agonists via FAP method from Powderset1.; assay type: functional
[2] = molecular target: T1, Beta-2 adrenergic receptor; test: beta2AR agonists driving receptor internalization, dose response, cell-based, FAP fluorogen, flow cytometry, cherry pick 1 (AID 588763); assay type: functional
[3] = molecular target: Heat shock protein HSP 90-alpha (Homo sapiens, UniProt P07900); assay type: functional, organism-based
[4] = molecular target: ATP-binding cassette sub-family B member 6 (Homo sapiens, UniProt Q9NP58); test: ABCB6 transporter inhibitors, porphyrin accumulation, dose response, flow cytometry, K562-ABCB6 cells, cherry pick 02 (AID 624487); assay type: functional; conditions: read-out: EC50_MICROM
[5] = Shn3 3'UTR reporter inhibitors, dose response, cell-based, Clone20 osteoblasts, firefly luciferase, cherry-picked (AID 624132); assay type: functional;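 further: firefly luciferase luminescence from reporter carrying the Shn3 3'UTR in osteoblasts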
[6] = control 3'UTR Renilla luciferase suppression, dose response, counter-screen for Shn3 inhibitor project, cell-based, Clone20-Shn3RL, cherry-picked (AID 624133); assay type: functional
HEK293 [7] = test: NOD1 signaling inhibitors, primary screen, cell-based, luminescence, uHTS (AID 1578); assay type: functional; conditions: Homo sapiens
[8] = molecular target: T2, Replicative DNA helicase DnaB (Mycobacterium tuberculosis, UniProt P9WMR3); test: DnaB intein splicing inhibitors, dose response, biochemical, cell-free fluorescence (AID 449749); assay type: functional
T2 sequence (P9WMR3 whole entry): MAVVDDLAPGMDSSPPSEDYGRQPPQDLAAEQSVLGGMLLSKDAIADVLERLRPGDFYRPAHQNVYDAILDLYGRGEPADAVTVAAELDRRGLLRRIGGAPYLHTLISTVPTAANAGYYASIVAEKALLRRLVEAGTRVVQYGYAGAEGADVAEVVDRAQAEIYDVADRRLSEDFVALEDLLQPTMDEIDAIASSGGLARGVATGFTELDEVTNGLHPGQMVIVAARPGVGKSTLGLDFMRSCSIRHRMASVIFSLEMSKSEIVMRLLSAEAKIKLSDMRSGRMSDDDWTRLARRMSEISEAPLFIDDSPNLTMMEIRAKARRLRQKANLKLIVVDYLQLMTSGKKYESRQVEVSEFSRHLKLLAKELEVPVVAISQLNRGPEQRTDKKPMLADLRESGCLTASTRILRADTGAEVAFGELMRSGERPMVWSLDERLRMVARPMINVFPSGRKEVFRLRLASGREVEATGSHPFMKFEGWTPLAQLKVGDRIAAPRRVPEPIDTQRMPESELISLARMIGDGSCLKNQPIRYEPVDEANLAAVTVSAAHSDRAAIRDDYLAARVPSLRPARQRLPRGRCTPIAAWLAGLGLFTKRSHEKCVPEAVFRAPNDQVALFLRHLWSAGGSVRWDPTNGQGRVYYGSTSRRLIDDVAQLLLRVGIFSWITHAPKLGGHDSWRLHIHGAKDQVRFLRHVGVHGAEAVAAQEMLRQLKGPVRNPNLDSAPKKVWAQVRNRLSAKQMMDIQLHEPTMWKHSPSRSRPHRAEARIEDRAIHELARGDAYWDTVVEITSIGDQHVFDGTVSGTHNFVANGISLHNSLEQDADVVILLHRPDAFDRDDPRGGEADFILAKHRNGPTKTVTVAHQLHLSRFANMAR

Beta-galactosidase = Beta-galactosidase (Escherichia coli, UniProt Q8VNN2); test: beta-galactosidase enzyme inhibitors and activators, dose response, artefact control for CCR6 antagonist project, biochemical, E. coli enzyme, set 3 (AID 504712); assay type: functional
CHO = test: cytotoxicity in TLR9-MyD88 CHO cells, dose response, cytotoxicity control for TLR9-MyD88 binding inhibitor project, cell-based, luminescence (AID 588339); assay type: functional, hamster; conditions: Cricetulus griseus;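 further: CHO cells stably coexpressing TLR9 and MyD88 fusions from primary screen; compound exposure lasted 48 hours before viability readout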
Beta Lactamase = Beta Lactamase (Pseudomonas aeruginosa, UniProt Q932Y6); test: beta-lactamase reporter inhibitor potency, dose response, artefact control for TLR9-MyD88 binding inhibitor project, BLA reporter cells, FRET fluorescence (AID 588341); assay type: cell-based;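 further: cell based assay in CHO-K1 cells stably expressing beta-lactamase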
HEK293 [9] = test: cells; assay type: functional, cell-based; conditions: Homo sapiens
Protein RecA = molecular target: T3, Protein RecA (Mycobacterium tuberculosis, UniProt P9WHJ3); test: Fluorescence Cell-Free Homogeneous Dose Retest to Identify Inhibitors of RecA-Intein Splicing Activity. [Related pubchem assays (depositor defined):AID2097, AID2223, AID489010, AID492950]; assay type: functional
T3 sequence (P9WHJ3 whole entry): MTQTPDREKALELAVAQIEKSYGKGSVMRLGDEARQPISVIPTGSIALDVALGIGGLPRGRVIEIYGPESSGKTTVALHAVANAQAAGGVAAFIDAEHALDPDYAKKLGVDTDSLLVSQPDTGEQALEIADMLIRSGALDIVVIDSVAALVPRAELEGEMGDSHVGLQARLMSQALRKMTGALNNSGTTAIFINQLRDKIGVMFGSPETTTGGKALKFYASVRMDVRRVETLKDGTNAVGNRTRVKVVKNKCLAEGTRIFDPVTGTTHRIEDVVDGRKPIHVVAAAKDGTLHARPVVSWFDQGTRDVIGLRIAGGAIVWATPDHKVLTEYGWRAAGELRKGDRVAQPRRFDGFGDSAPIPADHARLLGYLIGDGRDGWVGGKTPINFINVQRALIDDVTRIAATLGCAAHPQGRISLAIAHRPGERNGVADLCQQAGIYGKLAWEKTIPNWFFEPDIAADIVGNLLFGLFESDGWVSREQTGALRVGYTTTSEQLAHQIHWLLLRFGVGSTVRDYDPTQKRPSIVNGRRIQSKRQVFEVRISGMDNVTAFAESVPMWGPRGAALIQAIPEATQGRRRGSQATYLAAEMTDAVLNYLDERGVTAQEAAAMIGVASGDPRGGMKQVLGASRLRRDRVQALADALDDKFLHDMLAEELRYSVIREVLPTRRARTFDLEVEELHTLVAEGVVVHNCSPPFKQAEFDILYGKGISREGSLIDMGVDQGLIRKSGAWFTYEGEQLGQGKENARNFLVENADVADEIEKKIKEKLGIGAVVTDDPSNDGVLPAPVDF

[10] = HepG2 cell cytotoxicity, dose response, cytotoxicity control for Shn3 inhibitor project, CellTiter-Glo, cherry-picked (AID 624134); assay type: functional, cell-based
[11] = molecular target: Nucleotide-binding oligomerization domain-containing protein 2 (Homo sapiens, UniProt Q9HC29); test: NOD2 signaling inhibitors, cell-based, luminescence, uHTS, HEK293 (AID 1566); assay type: functional
Apelin receptor = Apelin receptor (Homo sapiens, UniProt P35414); test: APJ beta-arrestin recruitment antagonism, SAR follow-up, selectivity assay for CCR6 antagonist project, cell-based, luminescent, enzyme-fragment complementation (AID 588359); assay type: functional
HEK293 [12] = test: NOD2 signaling inhibitors in MDP-stimulated cells, cell-based, uHTS, luminescence (AID 2001); assay type: functional; conditions: Homo sapiens
[13] = Luminescence Cell-Based Dose Retest to Confirm Inhibitors of Cancer Stem Cells. [Related pubchem assays (depositor defined):AID2717, AID2721]; assay type: functional; conditions: Homo sapiens
[14] = molecular target: T4, Methionyl-tRNA synthetase, putative (Trypanosoma brucei brucei, UniProt Q38C91); assay type: functional, Trypanosoma brucei brucei strain 927/4 GUTat10.1
Fatty acid synthase [15] = molecular target: T5, Fatty acid synthase (Homo sapiens, UniProt P49327); test: FAS thioesterase domain inhibitors, dose response, biochemical, kinetic fluorescence intensity (AID 624326); assay type: functional;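 further: rate of fluorescence rise from hydrolysis of a fluorogenic O-methyl fluorescein ester substrate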
[16] = molecular target: T4, Methionyl-tRNA synthetase, putative; assay type: functional, Trypanosoma brucei brucei strain 927/4 GUTat10.1; remark: listed apart in the source
[17] = Counterscreen for inhibitors of Trypanosoma brucei methionyl tRNA synthetase (MetRS): Luminescence-based cell-based high throughput dose response assay to identify compounds that are cytotoxic to Jurkat human T lymphocyte cells.; assay type: functional
Fatty acid synthase [18] = molecular target: T5, Fatty acid synthase; test: FAS thioesterase domain inhibitors, dose response, biochemical, endpoint fluorescence intensity, uHTS hits (AID 624327); assay type: functional;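 further: fluorescence from hydrolysis of an O-methyl fluorescein acyl ester substrate by the enzyme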

T5 sequence (P49327 whole entry, the tested form may be a part): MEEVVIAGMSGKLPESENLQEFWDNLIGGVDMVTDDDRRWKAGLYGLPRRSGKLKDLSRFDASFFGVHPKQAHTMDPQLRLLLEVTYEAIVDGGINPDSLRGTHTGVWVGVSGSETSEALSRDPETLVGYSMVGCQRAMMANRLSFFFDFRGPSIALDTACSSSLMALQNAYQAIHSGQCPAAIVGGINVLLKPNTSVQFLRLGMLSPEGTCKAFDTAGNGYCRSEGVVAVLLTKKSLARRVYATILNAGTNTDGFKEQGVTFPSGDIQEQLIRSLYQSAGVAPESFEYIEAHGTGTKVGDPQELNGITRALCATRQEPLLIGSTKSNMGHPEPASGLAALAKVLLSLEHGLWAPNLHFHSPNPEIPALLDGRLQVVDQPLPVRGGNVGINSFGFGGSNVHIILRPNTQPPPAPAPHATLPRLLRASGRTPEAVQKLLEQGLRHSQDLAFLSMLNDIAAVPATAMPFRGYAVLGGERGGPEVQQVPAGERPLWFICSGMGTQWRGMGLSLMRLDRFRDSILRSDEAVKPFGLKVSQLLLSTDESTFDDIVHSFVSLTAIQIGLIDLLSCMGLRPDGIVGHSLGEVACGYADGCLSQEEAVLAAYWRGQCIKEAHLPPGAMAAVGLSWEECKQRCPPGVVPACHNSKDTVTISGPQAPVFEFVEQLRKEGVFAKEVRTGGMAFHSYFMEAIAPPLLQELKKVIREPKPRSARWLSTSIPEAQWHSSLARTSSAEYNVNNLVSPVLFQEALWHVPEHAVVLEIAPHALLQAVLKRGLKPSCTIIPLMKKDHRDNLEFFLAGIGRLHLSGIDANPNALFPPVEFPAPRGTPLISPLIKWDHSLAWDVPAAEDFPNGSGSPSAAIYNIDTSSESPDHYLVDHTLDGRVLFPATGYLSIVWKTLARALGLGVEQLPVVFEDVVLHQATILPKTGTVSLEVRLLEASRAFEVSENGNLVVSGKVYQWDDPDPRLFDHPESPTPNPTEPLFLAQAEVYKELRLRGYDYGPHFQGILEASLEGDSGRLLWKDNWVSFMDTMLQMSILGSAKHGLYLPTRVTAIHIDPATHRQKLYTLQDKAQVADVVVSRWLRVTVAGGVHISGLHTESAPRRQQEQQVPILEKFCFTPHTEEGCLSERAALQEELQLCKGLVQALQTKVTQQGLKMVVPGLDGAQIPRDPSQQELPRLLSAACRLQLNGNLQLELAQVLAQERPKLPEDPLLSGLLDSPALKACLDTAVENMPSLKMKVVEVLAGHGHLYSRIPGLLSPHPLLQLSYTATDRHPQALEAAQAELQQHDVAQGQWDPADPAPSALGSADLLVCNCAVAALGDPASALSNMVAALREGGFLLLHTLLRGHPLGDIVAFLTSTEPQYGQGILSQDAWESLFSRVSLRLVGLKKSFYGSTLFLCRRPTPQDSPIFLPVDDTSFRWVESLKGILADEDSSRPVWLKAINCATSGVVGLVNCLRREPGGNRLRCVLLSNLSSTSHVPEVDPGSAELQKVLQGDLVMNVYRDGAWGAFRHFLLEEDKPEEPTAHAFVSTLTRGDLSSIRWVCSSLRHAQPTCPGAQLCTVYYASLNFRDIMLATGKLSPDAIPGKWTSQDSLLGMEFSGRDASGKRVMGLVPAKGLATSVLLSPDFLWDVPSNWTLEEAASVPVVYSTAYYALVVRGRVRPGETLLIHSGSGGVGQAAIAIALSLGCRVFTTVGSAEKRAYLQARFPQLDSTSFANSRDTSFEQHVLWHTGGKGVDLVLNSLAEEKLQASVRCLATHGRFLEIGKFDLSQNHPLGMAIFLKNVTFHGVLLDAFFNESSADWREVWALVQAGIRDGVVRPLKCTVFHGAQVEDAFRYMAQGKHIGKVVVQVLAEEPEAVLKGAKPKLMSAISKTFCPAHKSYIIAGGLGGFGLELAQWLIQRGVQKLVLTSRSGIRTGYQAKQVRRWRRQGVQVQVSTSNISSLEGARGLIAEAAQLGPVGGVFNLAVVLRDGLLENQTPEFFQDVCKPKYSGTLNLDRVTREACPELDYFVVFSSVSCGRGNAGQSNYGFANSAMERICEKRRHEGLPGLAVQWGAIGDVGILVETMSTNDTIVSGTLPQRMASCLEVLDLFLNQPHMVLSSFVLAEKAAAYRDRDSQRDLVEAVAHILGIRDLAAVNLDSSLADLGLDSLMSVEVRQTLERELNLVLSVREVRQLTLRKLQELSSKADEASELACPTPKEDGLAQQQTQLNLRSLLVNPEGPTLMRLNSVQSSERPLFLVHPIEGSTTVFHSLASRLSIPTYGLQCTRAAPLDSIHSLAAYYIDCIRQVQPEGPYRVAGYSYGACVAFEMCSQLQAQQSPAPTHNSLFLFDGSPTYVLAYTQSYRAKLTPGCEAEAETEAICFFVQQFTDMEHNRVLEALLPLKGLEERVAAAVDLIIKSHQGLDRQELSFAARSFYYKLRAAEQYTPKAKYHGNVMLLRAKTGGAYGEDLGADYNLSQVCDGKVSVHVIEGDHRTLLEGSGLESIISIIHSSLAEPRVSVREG
T4 sequence (Q38C91 whole entry, the tested form may be a part): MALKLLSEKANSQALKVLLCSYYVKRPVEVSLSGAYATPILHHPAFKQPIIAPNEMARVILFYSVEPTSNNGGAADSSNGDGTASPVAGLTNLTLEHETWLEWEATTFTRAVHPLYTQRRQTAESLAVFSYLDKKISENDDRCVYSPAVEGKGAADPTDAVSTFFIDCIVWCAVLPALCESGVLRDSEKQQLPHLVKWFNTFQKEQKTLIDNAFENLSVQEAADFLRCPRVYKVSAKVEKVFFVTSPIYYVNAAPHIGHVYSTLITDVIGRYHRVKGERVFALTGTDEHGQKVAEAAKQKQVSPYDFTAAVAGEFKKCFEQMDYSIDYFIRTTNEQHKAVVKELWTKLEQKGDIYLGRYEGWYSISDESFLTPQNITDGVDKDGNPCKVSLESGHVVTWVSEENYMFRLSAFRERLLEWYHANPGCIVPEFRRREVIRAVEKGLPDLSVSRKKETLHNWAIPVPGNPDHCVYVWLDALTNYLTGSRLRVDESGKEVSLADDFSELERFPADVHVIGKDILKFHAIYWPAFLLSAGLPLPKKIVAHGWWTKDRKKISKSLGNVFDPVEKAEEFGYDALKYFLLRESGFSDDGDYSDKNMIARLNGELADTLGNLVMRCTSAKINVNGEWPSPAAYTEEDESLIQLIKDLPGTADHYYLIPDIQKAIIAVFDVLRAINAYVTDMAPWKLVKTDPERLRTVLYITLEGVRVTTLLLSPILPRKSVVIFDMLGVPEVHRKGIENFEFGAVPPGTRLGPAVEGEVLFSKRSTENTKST
T1 sequence (P07550 whole entry): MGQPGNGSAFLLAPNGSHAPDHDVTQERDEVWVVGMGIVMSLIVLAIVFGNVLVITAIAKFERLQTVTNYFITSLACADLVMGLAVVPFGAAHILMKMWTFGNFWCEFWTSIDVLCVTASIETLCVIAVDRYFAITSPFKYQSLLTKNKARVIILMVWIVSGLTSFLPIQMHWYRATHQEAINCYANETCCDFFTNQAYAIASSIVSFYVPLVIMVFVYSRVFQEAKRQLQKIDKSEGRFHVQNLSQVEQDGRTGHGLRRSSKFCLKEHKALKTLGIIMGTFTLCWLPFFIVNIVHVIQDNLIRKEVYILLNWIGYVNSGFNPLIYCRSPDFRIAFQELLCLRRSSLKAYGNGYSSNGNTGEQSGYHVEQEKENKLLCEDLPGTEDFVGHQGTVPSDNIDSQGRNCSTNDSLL
Chain of Apelin receptor (P35414 whole entry, the tested form may be a part): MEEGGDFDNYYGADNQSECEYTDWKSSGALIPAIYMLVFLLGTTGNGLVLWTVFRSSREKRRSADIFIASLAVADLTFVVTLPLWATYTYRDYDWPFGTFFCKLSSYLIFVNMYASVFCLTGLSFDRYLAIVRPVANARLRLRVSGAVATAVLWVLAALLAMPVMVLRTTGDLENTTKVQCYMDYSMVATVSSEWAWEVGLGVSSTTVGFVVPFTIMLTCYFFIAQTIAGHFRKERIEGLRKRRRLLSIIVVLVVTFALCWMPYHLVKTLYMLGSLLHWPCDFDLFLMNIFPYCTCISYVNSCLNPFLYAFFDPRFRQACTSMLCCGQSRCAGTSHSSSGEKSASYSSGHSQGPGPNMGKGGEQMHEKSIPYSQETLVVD
Chain of ATP-binding cassette sub-family B member 6 (Q9NP58 whole entry): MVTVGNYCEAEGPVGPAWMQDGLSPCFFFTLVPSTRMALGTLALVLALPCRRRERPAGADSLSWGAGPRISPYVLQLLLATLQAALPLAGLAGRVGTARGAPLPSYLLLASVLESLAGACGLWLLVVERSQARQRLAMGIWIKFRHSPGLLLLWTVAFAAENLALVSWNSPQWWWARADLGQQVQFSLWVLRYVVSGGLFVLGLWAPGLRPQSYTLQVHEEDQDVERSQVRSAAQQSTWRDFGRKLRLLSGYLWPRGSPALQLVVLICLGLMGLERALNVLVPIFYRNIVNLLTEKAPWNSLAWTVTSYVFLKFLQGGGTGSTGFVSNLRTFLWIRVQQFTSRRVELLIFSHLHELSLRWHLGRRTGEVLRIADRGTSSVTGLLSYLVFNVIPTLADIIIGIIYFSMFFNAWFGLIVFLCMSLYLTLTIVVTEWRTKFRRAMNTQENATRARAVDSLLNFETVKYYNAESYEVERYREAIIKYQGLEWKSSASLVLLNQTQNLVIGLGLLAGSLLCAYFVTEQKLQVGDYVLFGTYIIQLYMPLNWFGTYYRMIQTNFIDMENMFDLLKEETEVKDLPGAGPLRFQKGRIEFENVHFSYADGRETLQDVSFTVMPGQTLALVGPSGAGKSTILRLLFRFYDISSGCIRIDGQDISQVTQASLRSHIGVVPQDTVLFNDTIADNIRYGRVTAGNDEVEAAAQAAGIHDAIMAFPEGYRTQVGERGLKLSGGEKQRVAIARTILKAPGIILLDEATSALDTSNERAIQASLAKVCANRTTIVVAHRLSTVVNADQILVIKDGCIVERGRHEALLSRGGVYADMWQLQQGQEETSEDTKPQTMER

CCc1ccc(CN2CCC(Oc3ccc(C(=O)N4CCCCC4)cc3)CC2)cc1
active: EC50 [1] 1.83 µM | EC50 [2] 1.75 µM

Cc1ccccc1CS(=O)(=O)c1ncc(Cl)c(C(=O)Nc2ccc(F)cc2)n1
inactive: IC50 (Beta-galactosidase) > 66.6 µM | IC50 (HEK293 [9]) > 20 µM | EC50 [11] > 20 µM | IC50 (HEK293 [12]) 10 µM
active: AC50 [3] 2.41 µM | EC50 [4] 30.5 µM | AC50 [5] 3 µM | AC50 [6] 11.5 µM | EC50 (HEK293 [7]) 8.92 µM | AC50 [8] 1.22 µM | IC50 (CHO) 4.01 µM | IC50 (Beta Lactamase) 6.25 µM | EC50 (Protein RecA) 2.79 µM | AC50 [10] 40.4 µM | IC50 (Apelin receptor) 19.7 µM | AC50 [13] 2.2 µM

Cc1ccc(NC(=O)CN(C)C(=O)c2ccc(Cl)c([N+](=O)[O-])c2)cc1
inactive: IC50 [16] 17.9 µM | IC50 [17] 56.7 µM
active: IC50 [14] 8.63 µM | IC50 (Fatty acid synthase [15]) 6.26 µM | IC50 (Fatty acid synthase [18]) 7.6 µM
